Patent US9376694B2, “Method for preparing optically active amino acid using cosubstrate shuttling of transaminase” (INDUSTRY-ACADEMIC COOPERATION FOUNDATION, YONSEI UNIVERSITY, priority 2012, dated 2016)
“And” between values parts separate entries of the source, which are not always exact repeats. Identical values can stand only once.

Assays:
[1] = target: T1, branched-chain transaminase (Escherichia coli, UniProt P0AB80); test: Substrate specificity of purified branched-chain transaminase for keto acids; type: biochemical, E. coli; conditions: for Concentration of 2-oxobutyrate: purified enzyme (1 U/mL), 20 mM L-homoalanine, 20 mM keto acid, pH 7.0, 37° C., 7 hours
T1 construct: made in house; host or cells: E. coli BL21(DE3)
Method: Reaction was conducted using the branched-chain transaminase purified in Example 3 and using various L-amino acids and keto acids described in [Table 3] as substrates. After adding 10 μL of the purified enzyme (1 U/mL) to 100 μL of a mixture of 20 mM L-homoalanine, 20 mM keto acid and 50 mM potassium phosphate (pH 7.0), reaction was conducted at 37° C. for 7 hours and the amount of produced 2-oxobutyrate (keto acid of L-homoalanine) was measured. The result is shown in [Table 3].
When trimethylpyruvate and L-homoalanine were used as substrates, the equilibrium constant of the reaction by the branched-chain transaminase was very low at 0.16.

[2] = test system: ω-transaminase derived from Paracoccus denitrificans (PdwTA); test: Substrate specificity of purified ω-transaminase for keto acids in initial stage of reaction, PdwTA; type: biochemical; set-up: unit not given here; conditions: purified enzyme (1 U/mL); 20 mM keto acid, 20 mM (S)-α-methylbenzylamine, pH 7.0, 37° C., 10 minutes
Method: (§1) Reaction was conducted using the ω-transaminase purified in Example 3 and using various keto acids and amine as substrates as described in [Table 7]. After adding 10 μL of the purified enzyme (1 U/mL) to 100 μL of a mixture of 20 mM keto acid, 20 mM (S)-α-methylbenzylamine and 50 mM potassium phosphate (pH 7.0), reaction was conducted at 37° C. for 10 minutes and the amount of produced acetophenone (deaminated ketone of (S)-α-methylbenzylamine) was measured. The result was compared with that of the ω-transaminase derived from Ochrobactrum anthropi. The result is shown in [Table 7].

[3] = test system: ω-transaminase derived from Paracoccus denitrificans (PdwTA); test: Substrate specificity of purified ω-transaminase for keto acids, PdwTA; type: biochemical; conditions: purified enzyme (6 U/mL); 20 mM keto acid, 20 mM (S)-α-methylbenzylamine, pH 7.0, 37° C., 6 hours
Method: as §1, with “6].” for “7].”, “(6” for “(1”, “6 hours” for “10 minutes”

[4] = test system: ω-transaminase derived from Ochrobactrum anthropi; test: Substrate specificity of purified ω-transaminase for keto acids, OawTA; type: biochemical; conditions: 20 mM keto acid, 20 mM (S)-α-methylbenzylamine, pH 7.0, 37° C., 6 hours
Method: as §1, with “6].” for “7].”, “(6” for “(1”, “6 hours” for “10 minutes”

[5] = test system: ω-transaminase derived from Ochrobactrum anthropi; test: Substrate specificity of purified ω-transaminase for keto acids in initial stage of reaction, OawTA; type: biochemical; set-up: unit not given here; conditions: 20 mM keto acid, 20 mM (S)-α-methylbenzylamine, pH 7.0, 37° C., 10 minutes
Method: as §1

[6] = target: T1, branched-chain transaminase; test: Substrate specificity of branched-chain transaminase for amino acids with trimethylpyruvate, crude extract; type: biochemical, E. coli; conditions: 20 mM trimethylpyruvate, 20 mM L-amino acid, pH 7.0, 37° C., 2 hours
Method: Reaction was conducted using the crude extract containing the branched-chain transaminase obtained in Example 3 and using various trimethylpyruvate (keto acid of L-tert-leucine) as substrates. After adding 100 μL of the crude extract to 200 μL of a mixture of 20 mM trimethylpyruvate, 20 mM L-amino acid and 50 mM potassium phosphate (pH 7.0), reaction was conducted at 37° C. for 2 hours and the amount of produced L-tert-leucine was measured. The result is shown in [Table 2].

[7] = target: T1, branched-chain transaminase; test: Substrate specificity of purified branched-chain transaminase for amino acids with trimethylpyruvate; type: biochemical, E. coli; conditions: purified enzyme (6 U/mL); 20 mM trimethylpyruvate, 20 mM L-amino acid, pH 7.0, 37° C., 6 hours
Method: (§2) Reaction was conducted using the branched-chain transaminase purified in Example 3 and using various L-amino acids and trimethylpyruvate as substrates as described in [Table 4]. After adding 10 μL of the purified enzyme (6 U/mL) to 100 μL of a mixture of 20 mM trimethylpyruvate, 20 mM L-amino acid and 50 mM potassium phosphate (pH 7.0), reaction was conducted at 37° C. for 6 hours and the amount of produced L-tert-leucine was measured. The result is shown in [Table 4].

[8] = test system: ω-transaminase derived from Ochrobactrum anthropi; test: Substrate specificity of purified ω-transaminase for amino acids (glyoxylate acceptor), OawTA; type: biochemical; conditions: 20 mM glyoxylate, 20 mM L-amino acid, pH 7.0, 37° C., 6 hours
Method: as §2, with “ω-transaminase” for “branched-chain transaminase”, “5].” for “4].”, “(5” for “(6”, “glyoxylate,” for “trimethylpyruvate,”, “L-glycine” for “L-tert-leucine”, “measured. The reaction was conducted 3 times and the result was compared with that of the ω-transaminase derived from Ochrobactrum anthropi.” for “measured.”

[9] = test system: ω-transaminase derived from Paracoccus denitrificans (PdwTA); test: Substrate specificity of purified ω-transaminase for amino acids (glyoxylate acceptor), PdwTA; type: biochemical; conditions: purified enzyme (5 U/mL); 20 mM glyoxylate, 20 mM L-amino acid, pH 7.0, 37° C., 6 hours; reaction conducted 3 times
Method: as §2, with “ω-transaminase” for “branched-chain transaminase”, “5].” for “4].”, “(5” for “(6”, “glyoxylate,” for “trimethylpyruvate,”, “L-glycine” for “L-tert-leucine”, “measured. The reaction was conducted 3 times and the result was compared with that of the ω-transaminase derived from Ochrobactrum anthropi.” for “measured.”

[10] = target: T1, branched-chain transaminase; test: Substrate specificity of branched-chain transaminase for amino acids, enzyme-containing crude extract; type: biochemical, E. coli; conditions: 20 mM L-amino acid, pH 7.0, 37° C., 30 minutes
Method: Reaction was conducted using the crude extract containing the branched-chain transaminase obtained in Example 3 and using various L-amino acids and keto acids described in [Table 1] as substrates. After adding 20 μL of the crude extract to 200 μL of a mixture of 20 mM L-amino acid, 20 mM keto acid and 50 mM potassium phosphate (pH 7.0), reaction was conducted at 37° C. for 30 minutes and the amount of produced L-amino acid was measured. The result is shown in [Table 1].

[11] = 20 mM α-ketoglutarate as keto acid

T1 sequence (P0AB80 whole entry): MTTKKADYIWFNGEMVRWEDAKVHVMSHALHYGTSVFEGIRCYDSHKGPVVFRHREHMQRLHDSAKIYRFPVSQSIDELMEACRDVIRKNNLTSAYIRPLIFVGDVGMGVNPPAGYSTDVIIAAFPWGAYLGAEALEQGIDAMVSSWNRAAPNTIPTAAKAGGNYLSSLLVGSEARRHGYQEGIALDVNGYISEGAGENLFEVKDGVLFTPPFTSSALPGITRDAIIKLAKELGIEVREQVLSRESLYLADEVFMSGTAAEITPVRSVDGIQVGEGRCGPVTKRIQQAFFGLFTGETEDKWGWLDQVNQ

Row | Compound | amount of produced acetophenone, PdwTA [2] | amount of produced acetophenone, OawTA [5] | Concentration of L-tert-leucine [7] | Concentration of L-glycine, OawTA [8] [mM] | Concentration of L-glycine, PdwTA [9] | further results
1 | O=C(O)C(=O)C12CC3CC(CC(O)(C3)C1)C2 [2-(3-Hydroxy-1-adamantyl)-2-oxoethanoic acid] | – | – | – | – | – | Concentration of 2-oxobutyrate [1]: 5.47 mM
2 | CCC(=O)C(=O)O [2-Oxobutyrate] | 0.821 | 0.173 | – | – | – | Concentration of acetophenone, PdwTA [3]: 5.03 mM; Concentration of acetophenone, OawTA [4]: 5.05 mM
3 | CCCCC(=O)C(=O)O [2-Oxohexanoic acid] | 0.713 | 0.006 | – | – | – | Concentration of acetophenone, PdwTA [3]: 5.22 mM; Concentration of acetophenone, OawTA [4]: 3.07 mM
4 | CCCC(=O)C(=O)O [2-Oxopentanoic acid] | 1.332 | 0.378 | – | – | – | Concentration of acetophenone, PdwTA [3]: 5.24 mM; Concentration of acetophenone, OawTA [4]: 3.45 mM
5 | CC(C)C(=O)C(=O)O [3-Methyl-2-oxobutyrate] | – | – | – | – | – | Concentration of 2-oxobutyrate [1]: 11.93 mM; Concentration of acetophenone, PdwTA [3]: 0.00 mM; Concentration of acetophenone, OawTA [4]: 0.00 mM
6 | CCC(C)C(=O)C(=O)O (centres unmarked) [3-Methyl-2-oxoxpentanoic acid] | – | – | – | – | – | Concentration of 2-oxobutyrate [1]: 8.49 mM; Concentration of acetophenone, PdwTA [3]: 0.00 mM; Concentration of acetophenone, OawTA [4]: 0.00 mM
7 | CC(C)CC(=O)C(=O)O [4-Methyl-2-oxopentanoic acid] | 0.175 | 0.005 | – | – | – | Concentration of 2-oxobutyrate [1]: 7.27 mM; Concentration of acetophenone, PdwTA [3]: 4.99 mM; Concentration of acetophenone, OawTA [4]: 0.03 mM
8 | O=C(O)C(=O)CF [Fluoropyruvate] | 0.339 | 0.554 | – | – | – | –
9 | O=CC(=O)O [Gyloxylate] | 1.076 | 1.733 | – | – | – | –
10 | C[C@H](N)C(=O)O [L-Alanine] | – | – | 2.24 mM and 2.07 mM and 2.23 mM | 11.73 | 13.92 mM and 13.31 mM and 11.61 mM | Production amount of L-tert-leucine [6]: 0.8 mM
11 | N[C@@H](CCC(=O)O)C(=O)O [L-Glutamate] | – | – | – | – | – | Production amount of L-tert-leucine [6]: 6.4 mM; Production amount of L-amino acid ([10]; 20 mM 2-oxobutyrate as keto acid): 4.2 mM
12 | CC[C@H](N)C(=O)O [L-Homoalanine] | – | – | 5.57 mM and 4.43 mM and 5.71 mM | 4.97 | 12.56 mM and 13.31 mM and 11.26 mM | Production amount of L-tert-leucine [6]: 7.2 mM; Production amount of L-amino acid [10, 11]: 0.1 mM
13 | CC[C@H](C)[C@H](N)C(=O)O [L-Isoleucine] | – | – | 7.79 mM and 7.48 mM and 6.51 mM | 0.00 | 0.00 mM | Production amount of L-tert-leucine [6]: 9.2 mM; Production amount of L-amino acid [10, 11]: 2.6 mM
14 | CC(C)C[C@H](N)C(=O)O [L-Leucine] | – | – | 6.71 mM and 6.32 mM and 7.06 mM | 0.00 | 7.93 mM and 7.95 mM and 5.71 mM | –
15 | CCCC[C@H](N)C(=O)O [L-Norleucine] | – | – | 5.90 mM and 5.48 mM and 5.55 mM | 0.28 | 13.41 mM and 12.97 mM and 12.59 mM | –
16 | CCC[C@H](N)C(=O)O [L-Norvaline] | – | – | 6.31 mM and 5.34 mM and 6.06 mM | 0.36 | 13.43 mM and 14.29 mM and 14.12 mM | –
17 | CC(C)[C@H](N)C(=O)O [L-Valine] | – | – | 6.31 mM and 5.04 mM and 6.23 mM | 0.00 | 0.18 mM and 0.20 mM and 0.17 mM | Production amount of L-tert-leucine [6]: 7.8 mM; Production amount of L-amino acid [10, 11]: 1.6 mM
18 | CC(C)(C)[C@H](N)C(=O)O [L-tert-Leucine] | – | – | – | – | – | Production amount of L-amino acid [10, 11]: 0.06 mM
19 | O=C(O)C(=O)CS [Mercaptopyruvate] | 0.008 | 0.012 | – | – | – | –
20 | CC(C)(C)C(=O)C(=O)O [Trimethylpyruvate] | – | – | – | – | – | Concentration of 2-oxobutyrate [1]: 5.83 mM; equilibrium constant of the reaction by the branched-chain transaminase ([1]; trimethylpyruvate and L-homoalanine as substrates): 0.16
21 | O=C(O)C(=O)CO [β-Hydroxypyruvate] | 0.066 | 0.183 | – | – | – | –
